The assay has as its target T1, RXFP1 (Homo sapiens, UniProt Q9HBX9).
T1 construct: OVCAR5 cells expressing endogenous RXFP1; endogenous in cells; host or cells: OVCAR5 cells
T1 sequence (Q9HBX9 1-757): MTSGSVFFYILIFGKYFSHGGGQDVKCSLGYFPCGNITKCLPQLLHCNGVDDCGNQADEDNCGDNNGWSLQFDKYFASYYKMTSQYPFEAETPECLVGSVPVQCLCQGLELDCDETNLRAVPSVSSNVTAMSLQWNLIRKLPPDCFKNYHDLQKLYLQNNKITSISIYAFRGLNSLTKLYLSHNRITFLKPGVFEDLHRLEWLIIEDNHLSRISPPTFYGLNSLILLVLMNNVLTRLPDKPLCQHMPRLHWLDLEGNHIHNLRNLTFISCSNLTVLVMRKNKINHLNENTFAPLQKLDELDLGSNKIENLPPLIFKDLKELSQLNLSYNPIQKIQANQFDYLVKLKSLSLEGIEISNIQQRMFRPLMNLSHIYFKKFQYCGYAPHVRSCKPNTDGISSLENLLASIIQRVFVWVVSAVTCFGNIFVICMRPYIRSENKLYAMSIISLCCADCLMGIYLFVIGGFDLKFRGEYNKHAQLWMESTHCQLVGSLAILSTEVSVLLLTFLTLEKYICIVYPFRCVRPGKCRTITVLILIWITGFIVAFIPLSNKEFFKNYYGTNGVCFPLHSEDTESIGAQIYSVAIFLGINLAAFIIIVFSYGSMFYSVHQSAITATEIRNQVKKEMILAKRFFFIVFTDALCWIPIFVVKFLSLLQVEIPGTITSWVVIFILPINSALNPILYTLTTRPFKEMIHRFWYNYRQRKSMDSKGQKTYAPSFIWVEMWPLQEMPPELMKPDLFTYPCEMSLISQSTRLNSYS
As to the kind of experiment: OVCAR5 cAMP assay (HTRF), RXFP1 agonist activity. The format is cell-based. The conditions noted are these: for Emax: OVCAR-5, maximal cAMP relative to H2-relaxin maximum (100%), read-out: EMax, OVCAR 5 cells (cAMP); for EC50: OVCAR5 cells, cAMP HTRF, read-out: EC50 (nM), OVCAR 5 cells (cAMP). In outline:
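OVCAR5 cells (endogenous RXFP1) pretreated 40 min at 37° C with 1 mM IBMX, then exposed to peptides in serum-free medium for 30 min at 37° C. Lysate cAMP read by HTRF; EC50 from variable-slope sigmoidal fit; Emax as % of H2-relaxin maximal cAMP in same run.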
A general note: Changes in cAMP serve as a functional read-out for many G protein-coupled receptors.

Each structure is given as a SMILES string. *1 amine or outer side, *2 acyl side, *3 side chain or, on linkers, in order; H or OH if unused. Where a SMILES comes first, the peptide text is derived from it. Side-chain parts run from the residue outwards. [ ]: non-standard residue; d: D form. The star is where a group is joined. X18 = CCCCCCCCCCCCCCCC(=O)N[C@@H](CCC(=O)N[C@@H](CCC(=O)N[C@@H](CCC(=O)NCCCC[C@H](NC(=O)CCC(=O)NCCCOCCOCCOCCCNC(=O)CCC(=O)NCCCOCCOCCOCCCNC(=O)CCC(=O)NCCCOCCOCCOCCCN*)C(N)=O)C(=O)O)C(=O)O)C(=O)O; X17 = CCCCCCCCCCCCCCC(=O)N[C@@H](CCC(=O)N[C@@H](CCC(=O)N[C@@H](CCC(=O)NCCCOCCOCCOCCCNC(=O)CCC(=O)NCCCOCCOCCOCCCNC(=O)CCC(=O)NCCCOCCOCCOCCCN*)C(=O)O)C(=O)O)C(=O)O; PEG12 = NCCOCCOCCOCCOCCOCCOCCOCCOCCOCCOCCOCCOCCC(=O)O; γGlu = O=C(O)[C@H](CCC(=O)[*:2])N[*:1]; 1Nal = N[C@@H](Cc1cccc2ccccc12)C(=O)O; Stearoyl = CCCCCCCCCCCCCCCCCC(=O)*; Palmitoyl = CCCCCCCCCCCCCCCC(=O)*; Myristoyl = CCCCCCCCCCCCCC(=O)*; Suc = O=C(CCC(=O)[*:2])[*:1]; αMeK = C[C@](N)(CCCCN)C(=O)O; Nle = CCCC[C@H](N)C(=O)O; AEEA = NCCOCCOCC(=O)O; Aib = CC(C)(N)C(=O)O

As usually defined, the Emax is the greatest response seen or fitted, relative to the assay's reference. By EC50 is commonly meant the concentration that produces a half-maximal response.

Turning to `CCCCCCCCCCCCCCCC(=O)N[C@@H](CCC(=O)N[C@@H](CCC(=O)N[C@@H](CCC(=O)NCCCC[C@H](NC(=O)CCC(=O)NCCCOCCOCCOCCCNC(=O)CCC(=O)NCCCOCCOCCOCCCNC(=O)CCC(=O)NCCCOCCOCCOCCCNC(=O)[C@H](CCCCNC(C)=O)NC(=O)[C@H](C)NC(=O)[C@H](CCCNC(=N)N)NC(=O)[C@](C)(CCCCN)NC(=O)[C@H](CO)NC(=O)[C@H](Cc1ccccc1)NC(=O)[C@@H](NC(=O)[C@H](CO)NC(=O)[C@H](CCCC)NC(=O)CNC(=O)[C@H](CCC(=O)O)NC(=O)C(C)(C)NC(=O)C(C)(C)NC(=O)[C@@H](NC(=O)[C@H](CCCCNC(C)=O)NC(=O)[C@H](C)NC(=O)[C@H](CCCNC(=N)N)NC(=O)[C@@H](NC(=O)[C@H](CCCCN)NC(=O)[C@H](CCC(=O)O)NC(=O)[C@H](CCCNC(=N)N)NC(=O)CNC(=O)[C@H](CCC(=O)O)NC(=O)[C@H](CC(C)C)NC(C)=O)C(C)C)[C@@H](C)CC)[C@@H](C)O)C(N)=O)C(=O)O)C(=O)O)C(=O)O` [compound 187] (Ac-LEGREKVRAK(Ac)I[Aib][Aib]EG[Nle]STFS[αMeK]RAK(Ac)-X18), the maximal effect (Emax) stood at 100%.

`CCCCCCCCCCCCCCCCCC(=O)N[C@@H](CCC(=O)N[C@@H](CCC(=O)N[C@@H](CCC(=O)NCCOCCOCC(=O)NCCOCCOCC(=O)NCCOCCOCC(=O)NCCCC[C@H](NC(=O)[C@H](CCCCNC(C)=O)NC(=O)[C@H](CCCCN)NC(=O)[C@H](CCCNC(=N)N)NC(=O)C(C)(C)NC(=O)[C@H](CO)NC(=O)[C@H](Cc1cccc2ccccc12)NC(=O)[C@@H](NC(=O)[C@H](CO)NC(=O)[C@H](CCCC)NC(=O)CNC(=O)[C@H](CCC(=O)O)NC(=O)C(C)(C)NC(=O)C(C)(C)NC(=O)[C@@H](NC(=O)[C@H](CCCCNC(C)=O)NC(=O)C(C)(C)NC(=O)[C@H](CCCNC(=N)N)NC(=O)[C@@H](NC(=O)[C@H](CCCCN)NC(=O)[C@H](CCC(=O)O)NC(=O)[C@H](CCCNC(=N)N)NC(=O)CNC(=O)[C@H](CCC(=O)O)NC(=O)[C@H](CC(C)C)NC(C)=O)C(C)C)[C@@H](C)CC)[C@@H](C)O)C(N)=O)C(=O)O)C(=O)O)C(=O)O` [compound 85] (Ac-LEGREKVR[Aib]K(Ac)I[Aib][Aib]EG[Nle]ST[1Nal]S[Aib]RKK(Ac)K([AEEA-AEEA-AEEA-γGlu-γGlu-γGlu-Stearoyl])-NH2): the Emax was 75%.

In the case of `CCCCCCCCCCCCCCCCCC(=O)N[C@@H](CCC(=O)N[C@@H](CCC(=O)N[C@@H](CCC(=O)NCCCC[C@H](NC(=O)CCOCCOCCOCCOCCOCCOCCOCCOCCOCCOCCOCCOCCNC(=O)[C@H](CCCCN)NC(=O)[C@H](CCCCN)NC(=O)[C@H](CCCNC(=N)N)NC(=O)C(C)(C)NC(=O)[C@H](CO)NC(=O)[C@H](Cc1c[nH]c2ccccc12)NC(=O)[C@@H](NC(=O)[C@H](CO)NC(=O)[C@H](CCCC)NC(=O)CNC(=O)[C@H](CCC(=O)O)NC(=O)C(C)(C)NC(=O)C(C)(C)NC(=O)[C@@H](NC(=O)[C@H](CCCCNC(C)=O)NC(=O)[C@H](C)NC(=O)[C@H](CCCNC(=N)N)NC(=O)[C@@H](NC(=O)[C@H](CCCCN)NC(=O)[C@H](CCC(=O)O)NC(=O)[C@H](CCCNC(=N)N)NC(=O)CNC(=O)[C@H](CCC(=O)O)NC(=O)[C@H](CC(C)C)NC(C)=O)C(C)C)[C@@H](C)CC)[C@@H](C)O)C(N)=O)C(=O)O)C(=O)O)C(=O)O` [compound 32] (Ac-LEGREKVRAK(Ac)I[Aib][Aib]EG[Nle]STWS[Aib]RKK[PEG12]K([γGlu-γGlu-γGlu-Stearoyl])-NH2), the concentration for a half-maximal effect (EC50) stood at 1.04 nM and the maximum response (Emax) came out at 96%.

Consider `CCCCCCCCCCCCCC(=O)N[C@@H](CCC(=O)N[C@@H](CCC(=O)N[C@@H](CCC(=O)N[C@@H](CCC(=O)NCCCC[C@H](NC(=O)COCCOCCNC(=O)COCCOCCNC(=O)COCCOCCNC(=O)COCCOCCNC(=O)[C@H](CCCCNC(C)=O)NC(=O)[C@H](C)NC(=O)[C@H](CCCNC(=N)N)NC(=O)[C@](C)(CCCCN)NC(=O)[C@H](CO)NC(=O)[C@H](Cc1ccccc1)NC(=O)[C@@H](NC(=O)[C@H](CO)NC(=O)[C@H](CCC(N)=O)NC(=O)CNC(=O)[C@H](CCC(=O)O)NC(=O)C(C)(C)NC(=O)C(C)(C)NC(=O)[C@@H](NC(=O)[C@H](CCCCNC(C)=O)NC(=O)[C@H](C)NC(=O)[C@H](CCCNC(=N)N)NC(=O)[C@@H](NC(=O)[C@H](CCCCN)NC(=O)[C@H](CCC(=O)O)NC(=O)[C@H](CCCNC(=N)N)NC(=O)CNC(=O)[C@H](CCC(=O)O)NC(=O)[C@H](CC(C)C)NC(C)=O)C(C)C)[C@@H](C)CC)[C@@H](C)O)C(N)=O)C(=O)O)C(=O)O)C(=O)O)C(=O)O` [compound 190] (Ac-LEGREKVRAK(Ac)I[Aib][Aib]EGQSTFS[αMeK]RAK(Ac)[AEEA][AEEA][AEEA][AEEA]K([γGlu-γGlu-γGlu-γGlu-Myristoyl])-NH2), for which the maximum response (Emax) is 93%.

`CCCCCCCCCCCCCCC(=O)N[C@@H](CCC(=O)N[C@@H](CCC(=O)N[C@@H](CCC(=O)NCCCOCCOCCOCCCNC(=O)CCC(=O)NCCCOCCOCCOCCCNC(=O)CCC(=O)NCCCOCCOCCOCCCNC(=O)CCC(=O)NCCCC[C@H](NC(=O)[C@H](CCCCNC(C)=O)NC(=O)[C@H](C)NC(=O)[C@H](CCCNC(=N)N)NC(=O)[C@](C)(CCCCN)NC(=O)[C@H](CO)NC(=O)[C@H](Cc1ccccc1)NC(=O)[C@@H](NC(=O)[C@H](CO)NC(=O)[C@H](CCC(N)=O)NC(=O)CNC(=O)[C@H](CCC(=O)O)NC(=O)C(C)(C)NC(=O)C(C)(C)NC(=O)[C@@H](NC(=O)[C@H](CCCCNC(C)=O)NC(=O)[C@H](C)NC(=O)[C@H](CCCNC(=N)N)NC(=O)[C@@H](NC(=O)[C@H](CCCCN)NC(=O)[C@H](CCC(=O)O)NC(=O)[C@H](CCCNC(=N)N)NC(=O)CNC(=O)[C@H](CCC(=O)O)NC(=O)[C@H](CC(C)C)NC(C)=O)C(C)C)[C@@H](C)CC)[C@@H](C)O)C(N)=O)C(=O)O)C(=O)O)C(=O)O` [compound 189] (Ac-LEGREKVRAK(Ac)I[Aib][Aib]EGQSTFS[αMeK]RAK(Ac)K([Suc-X17])-NH2): the maximal effect (Emax) was 100%.

As to `CCCCCCCCCCCCCCCC(=O)N[C@@H](CCC(=O)N[C@@H](CCC(=O)N[C@@H](CCC(=O)N[C@@H](CCC(=O)NCCCC[C@H](NC(=O)CCOCCOCCOCCOCCOCCOCCOCCOCCOCCOCCOCCOCCNC(=O)[C@H](CCCCNC(C)=O)NC(=O)[C@H](CCCCN)NC(=O)[C@H](CCCNC(=N)N)NC(=O)[C@](C)(CCCCN)NC(=O)[C@H](CO)NC(=O)[C@H](Cc1c[nH]c2ccccc12)NC(=O)[C@@H](NC(=O)[C@H](CO)NC(=O)[C@H](CCCC)NC(=O)CNC(=O)[C@H](CCC(=O)O)NC(=O)C(C)(C)NC(=O)C(C)(C)NC(=O)[C@@H](NC(=O)[C@H](CCCCNC(C)=O)NC(=O)[C@H](C)NC(=O)[C@H](CCCNC(=N)N)NC(=O)[C@@H](NC(=O)[C@H](CCCCN)NC(=O)[C@H](CCC(=O)O)NC(=O)[C@H](CCCNC(=N)N)NC(=O)CNC(=O)[C@H](CCC(=O)O)NC(=O)[C@H](CC(C)C)NC(C)=O)C(C)C)[C@@H](C)CC)[C@@H](C)O)C(N)=O)C(=O)O)C(=O)O)C(=O)O)C(=O)O` [compound 43] (Ac-LEGREKVRAK(Ac)I[Aib][Aib]EG[Nle]STWS[αMeK]RKK(Ac)[PEG12]K([γGlu-γGlu-γGlu-γGlu-Palmitoyl])-NH2), the EC50 worked out at 0.14 nM and the maximum response (Emax) is 106%.

For the compound `CCCCCCCCCCCCCCCC(=O)N[C@@H](CCC(=O)N[C@@H](CCC(=O)N[C@@H](CCC(=O)NCCOCCOCC(=O)NCCOCCOCC(=O)NCCCC[C@H](NC(=O)[C@H](CCCCN)NC(=O)[C@H](CCCCN)NC(=O)[C@H](CCCNC(=N)N)NC(=O)C(C)(C)NC(=O)[C@H](CO)NC(=O)[C@H](Cc1c[nH]c2ccccc12)NC(=O)[C@@H](NC(=O)[C@H](CO)NC(=O)[C@H](CCCC)NC(=O)CNC(=O)[C@H](CCC(=O)O)NC(=O)C(C)(C)NC(=O)C(C)(C)NC(=O)[C@@H](NC(=O)[C@H](CCCCNC(C)=O)NC(=O)[C@H](C)NC(=O)[C@H](CCCNC(=N)N)NC(=O)[C@@H](NC(=O)[C@H](CCCCN)NC(=O)[C@H](CCC(=O)O)NC(=O)[C@H](CCCNC(=N)N)NC(=O)CNC(=O)[C@H](CCC(=O)O)NC(=O)[C@H](CC(C)C)NC(C)=O)C(C)C)[C@@H](C)CC)[C@@H](C)O)C(N)=O)C(=O)O)C(=O)O)C(=O)O` [compound 60] (Ac-LEGREKVRAK(Ac)I[Aib][Aib]EG[Nle]STWS[Aib]RKKK([AEEA-AEEA-γGlu-γGlu-γGlu-Palmitoyl])-NH2), the concentration giving a half-maximal response (EC50) was found to be 0.11 nM and the maximal response (Emax) was found to be 91%.
